The source of these data is patent US9993488B2, “Dry powder formulations for inhalation” (OtiTopic Inc., priority 2014, dated 2018).

Values after ≈ are worked out from the molar mass of the structure shown. Where two headings read alike, the source gives them in different places.

Series [1] can be described thus: Gravimetric emitted dose through DPI devices (TwinCaps, RS01) with NGI. Type of series: physicochemical. The conditions noted are these: 40 L/min, fill weight 60.00 mg. The protocol:
The aerodynamic particle size distributions (APSDs) of the ASA powders were determined by evaluating emitted doses gravimetrically through two DPI devices, the TwinCaps and the RS01, using a Next Generation Impactor (NGI). Flow rates of approximately 40 and 100 L/min provided the 4 kPa pressure drop across the TwinCaps and RS01 devices, respectively, as stipulated by USP <601>, Inhalation and Nasal Drug Products: Aerosol, Sprays, and Powders—Performance Quality Tests.
The TwinCaps DPI was tested (2 actuations) using various loaded doses. Testing was performed to determine the approximate emitted dose from the device based on weight. Each test was performed using a freshly prepared NGI.
The Plastiape RS01 monodose DPI inhaler was also tested using various loaded doses in Size 3 HPMC capsules to determine approximate emitted dose based on the weight.

Series [2] in a line: Solubility of aspirin in solvents. Type of series: physicochemical. As to conditions: organic solvent or mixture. An excerpt:
The solubility of aspirin in a number of solvents was first evaluated prior to initiating controlled crystallization by addition of a suitable anti-solvent.

Series [3] in a line: Solubility of aspirin in anti-solvents / dispersion media. Type of series: physicochemical. The protocol: After considering a number of factors in the end it was determined that only n-heptane and toluene fulfilled all the requirements, and therefore these were selected for further evaluation. Suspensions of aspirin at 5% w/w were prepared with the various anti-solvents, by charging the required amount of anti-solvent, charging the required amount of aspirin, and then stirring until a homogeneous suspension was obtained. The suspensions were qualitatively evaluated at room temperature and then filtered using a 0.45 μm membrane, which was then placed in an oven and dried at 60° C. until the solvent had completely evaporated. A quantitative analysis was performed on the residue that remained in the membrane by weighing the membrane before and after the test.
5% w/w DSPC was used as it was found from previous work to mitigate irritation when inhaled. Additionally, soy lecithin was also used in the concentration of 0.1% w/w. As aspirin is insoluble in n-hexane, it was selected as a dispersion media for the micronized particles. Also, it has boiling point of 70° C. which is much below the melting point of aspirin (˜135° C.) and therefore, an inlet temperature of 85° C. should remove solvent without affecting the aspirin particles.

The test system of the next series is respiratory system. The experiment in a line: Irritation / tolerability on inhalation. Type of series: in vivo. From the text:
In addition, particles described herein can be mixed and/or coated with various pharmaceutically acceptable excipients. Excipients can be included in order to improve aerodynamic performance of the active drug, to improve bioavailability, increase stability, to modulate pH, to provide sustained release properties, to provide taste-masking of an irritating drug and/or to improve pharmacokinetic performance. In one embodiment, a dry powder comprises an amount of excipient effective to provide taste-masking of an irritating drug. In terms of suitable formulations for inhalation, not only is particle size important in order to reach a desired region of the respiratory system, but the formulation must be acceptable to patients. […] Consequently, it became necessary to find a suitable excipient in order to mask this property of aspirin.
Aspirin alone may be too irritating and evoke a choking response (e.g., coughing, bronchospasms) when inhaled. […] For example, symptoms of headache and nasal congestion may be alleviated within about 10 seconds, about 15 seconds, about 20 seconds, about 30 seconds, or within about 45 seconds.

The conditions of series [4]: cited from earlier work.
The subject of series [5] is major gastrointestinal and extracranial bleeds. The conditions noted are these: oral aspirin; cited from earlier work.
In a further series the test system is vascular events. As to conditions: cited from earlier work.
For series [6], the system named is platelet aggregation, platelet thromboxane production, urinary 2,3-dinor-TXB2 excretion. As to conditions: cited from earlier work.
Series [7] in a line: Pharmacokinetics of orally administered aspirin (literature). As to conditions: extrapolated from linear pharmacokinetics over 30-400 mg.
Where [8] appears, read: 5% w/w suspension, room temperature, 0.45 μm filtration.
Where [9] appears, read: after oral administration of ASA.
[10] abbreviates: following administration of ASA.

For `OC[C@H]1O[C@@H](O[C@H]2[C@H](O)[C@@H](O)C(O)O[C@@H]2CO)[C@H](O)[C@@H](O)[C@H]1O` (stereo partly shown) [Lactose, lactose], in [1], the “% Emitted (based on fill weight)” value stood at 94.5% and the “Total Emitted Dose” value is reported as 56.73 mg.
As for `CC(=O)Oc1ccccc1C(=O)O` [aspirin, acetylsalicylic acid], the solubility in series [2] (DMF, 23 °C) turned out to be 500 mg/mL (≈ 2780 mM); in series [2] (PEG-200, 23 °C) it was 77 mg/mL (≈ 427 mM); in series [2] (THF, 3 °C), 250 mg/mL (≈ 1390 mM); in [2] (THF, 23 °C), 500 mg/mL (≈ 2780 mM); in series [2] (acetone, 3 °C), 143 mg/mL (≈ 794 mM); in [2] (acetone, 23 °C) it was 200 mg/mL (≈ 1110 mM). The solubility was found to be 63 mg/mL (≈ 350 mM) in [2] (ethanol, EtOH, 3 °C); 125 mg/mL (≈ 694 mM) in series [2] (ethanol, EtOH, 23 °C); 133 mg/mL (≈ 738 mM) in [2] (methanol, MeOH, 3 °C); 167 mg/mL (≈ 927 mM) in series [2] (methanol, MeOH, 23 °C). The Behavior towards n-heptane entry in series [3] (setting [8]) is on record as “phobic behavior”. The Solubility in toluene result in [3] (setting [8]) is given as “partially soluble”. The Solubility in n-hexane result in [3] (n-hexane) is reported as “insoluble”. The “irritation / tolerability when inhaled” value with respiratory system was “quite irritating”. For the same molecule, the elimination half-life in [4] (setting [9]) is 0.25 to 0.333 h. In addition, in [4] (setting [9]), the “time to peak plasma levels” value is “about 20 minutes”. Besides, in [4] (oral, first pass effect), the “fraction of oral dose bioavailable” value is “one to two-thirds”. In series [4] (oral, gut and liver), the “fraction of oral dosage lost or inactivated by first pass effect” value is “approximately ⅔”. In addition, in series [5], the “increase of major gastrointestinal and extracranial bleeds” value is on record as “over 50%”. Further, the vascular events prevented in the series with vascular events (Dutch TIA Study, any dose above 30 mg daily) is recorded as 13%. Moreover, the “risk of stroke or death” value with vascular events (SALT, 75 mg/day, patients with cerebrovascular ischemic events) was “significantly reduces”. Also, the “inhibition of indices of platelet activation” value in [6] (40 mg ASA versus 100 mg, healthy human subjects) is recorded as “significantly less effective”. Also, in series [6] (plain versus enteric-coated 100 mg ASA), the “inhibition of platelet aggregation, thromboxane production, urinary 2,3-dinor-TXB2 excretion” value is “equally effective”.
For `O=C(O)c1ccccc1O` [salicylic acid], in series [4] (setting [10]), the elimination half-life was 2 to 3 h and the “period of increasing plasma levels” value was “about 45 minutes”. Besides, the “expected peak circulating plasma level” value in series [7] is ~10 µg/mL.
